“Also recorded” adds a separate entry of the source.
Experiments:
Assay type in all cases: in vivo, mouse
C57BI/6 mice = assay: Lifespan of old (2-year-old) C57BL/6 mice given a diet containing the compound
Experimental: (§1) Briefly, 24-28 mice per intervention were used, with an approximately equal number of males and females. Mice were first assessed with regard to frailty index and gait speed, and then randomized to make sure the experimental and control groups had the same average frailty index and gait speed. Mice were then given a diet containing a compound of interest. […] Mice were monitored daily until they died. A separate cohort of old mice was assessed for frailty index and gait speed.
Interventions were predicted in a screen based on the gene expression longevity signatures that we developed. The predicted interventions were then verified for gene expression responses in human and mouse primary cell culture (hepatocytes) and in live mice (after mice were fed for 1 month with the diets containing these interventions). The interventions that passed these tests were further assessed for the effect on lifespan of 2-year-old C57BI/6 mice. Older mice (2-year-old) were chosen for this experiment in order to mimic the effect of giving interventions to human subjects in their second half of life.
as §1, with “females. They” for “females. Mice”

C57BL/6 mice [1] = assay: Frailty index of old C57BL/6 mice on compound diet
Experimental: as §1
as §1, with “females. They” for “females. Mice”

C57BL/6 mice [2] = assay: Gait speed of old C57BL/6 mice on compound diet; settings: 31-month-old C57BL/6 male mice
Experimental: as §1
as §1, with “females. They” for “females. Mice”

C57BL/6 mice [3] = assay: Glucose tolerance in old C57BL/6 mice on compound diet; settings: old C57BL/6 mice at the dose given in diet (AZD-8055: 23-month-old, treated 2.5 months)
Experimental: 23-month-old mice were treated for 2.5 months prior to analyses.

longevity signatures = assay: GSEA-based association of hepatic gene expression response (RNAseq, UM-HET3 mice on compound diet for 1 month) with longevity signatures; settings: UM-HET3 male mice, compound in diet for 1 month, liver RNAseq
Description: Four-month old UM-HET3 mice were subjected to diets for 1 month, followed by gene expression analyses.
To validate the above approach and predictions, specific gene expression datasets were chosen from the GEO database that correspond to the effect of certain interventions considered to be health- and lifespan-extending or shortening on mouse liver (FIG. 16). […] UM-HET3 mice were then subjected to these compounds for 1 month, at which point the mice were sacrificed and subjected to gene expression analysis. Finally, the association GSEA-based test was applied to validate the findings (FIG. 16).
Second, diets were prepared for 24 of the identified compounds. These diets were administered to mice for 1 month, and ensuing gene expression changes were monitored. […]
For samples corresponding to lifespan-extending interventions, paired-end sequencing with 100 bp read length was performed on illumine HiSeq2000 platform. For samples corresponding to predicted compounds, libraries were prepared as described in (Hashimshony et al., 2016) and sequenced with 100 bp read length option on the Illumina HiSeq2500. […] Processed/cleaned reads were then mapped with STAR (version 2.5.2b) (Dobin et al., 2013) and counted via featureCounts (Liao et al., 2014). […]

[4] = tested on: immune cells in the spleen; assay: Population of immune cells in the spleen by FACS; settings: 27-month-old C57BI/6 females
Experimental: Population of immune cells in the spleen is not altered by Selumetinib (n=7 for Control, n=12 for Selumetinib). 27-month-old C57BI/6 females were used. Cells were analyzed by FACS: B-cells are CD45+CD19+, T-cells are CD45+CD3+, and myeloid cells are CD45+CD11b+.

COc1ccc(-c2ccc3c(N4CCOCC4)nc(N4C[C@@H](C)O[C@@H](C)C4)nc3n2)cc1CO [KU-0063794, rel-5-[2-[(2R,6S)-2,6-dimethyl-4-morpholinyl]-4-(4-morpholinyl)pyrido[2,3-d]pyrimidin-7-yl]-2-methoxybenzenemethanol]
Effect on lifespan (C57BI/6 mice; C57BL/6 male mice, given late in life, ad libitum in diet (AZD-8055 20 mg/kg of food, LY294002 600 mg/kg, KU-0063794 10 mg/kg of diet)): extend lifespan | Effect on frailty index (C57BL/6 mice [1]; 31-month-old C57BL/6 male mice): improved | Effect on gait speed (C57BL/6 mice [2]): improved | Effect on glucose tolerance (C57BL/6 mice [3]): No effect; also recorded: did not have a significant effect | Association of hepatic gene expression response with longevity signatures (longevity signatures): consistent positive association with all lifespan-extending interventions, except for rapamycin

Cn1cnc2c(F)c(Nc3ccc(Br)cc3Cl)c(C(=O)NOCCO)cc21 [Selumetinib, 6-(4-Bromo-2-chloroanilino)-7-fluoro-N-(2-hydroxyethoxy)-3-methylbenzimidazole-5-carboxamide]
Effect on lifespan (C57BI/6 mice; C57BL/6 mice (Selumetinib: males and females combined), given late in life, ad libitum (Selumetinib 100 mg/kg of diet, Celastrol 8 mg/kg of food)): extends lifespan | Effect on lifespan (C57BI/6 mice; independent cohort of female C57BL/6 mice, Selumetinib 100 mg/kg of diet): extends lifespan | Effect on frailty index (C57BL/6 mice [1]; 31-month-old C57BL/6 female mice): improves | Relative populations of immune cells in the spleen (B-cells, T-cells, myeloid cells) [4]: not altered; also recorded: does not alter

C1COC(NC(C2CC2)C2CC2)=N1 [rilmenidine, N-(Dicyclopropylmethyl)-4,5-dihydro-1,3-oxazol-2-amine]
Association of hepatic gene expression response with longevity signatures (longevity signatures): positive association with some of the signatures, including CR and GH deficiency, but not with the signatures associated with the lifespan extension effect

— patent publication US20220249504A1, “LONGEVITY SIGNATURES AND THEIR APPLICATIONS” (The Brigham and Women's Hospital, Inc., priority 2019, published 2022)
